Reference: patent publication US11168058B2, “Manufacture of a crystalline pharmaceutical product” (ORION CORPORATION, priority 2017, dated 2021)

Legend:
Type in all cases: physicochemical
[1] = Specific surface area (SSA) by three-point nitrogen adsorption (BET), TriStar 3000; details: for SSA: Table 1, batch A; for SSA / Specific surface area: crystalline rounded particles before/after milling; for Specific surface area: Table 2, batch B
Method: The specific surface area (SSA) of crystalline particles of compound (I) can be analyzed using the three-point nitrogen adsorption technique based on the Brunauer, Emmett and Teller (BET) theory, for example using TriStar 3000 automated gas adsorption analyzer, (Micromeritics, Inc.). The samples are suitably vacuum dried for 20 hours at 40° C. The volumetric method can be used at the relative pressure range of 0.1-0.3 P/P0.
(§1) The specific surface area (SSA) and particle size distribution (PSD) were determined for two batches (A and B) of crystalline rounded particles of compound (I) prepared according to the present invention. The particles of the two batches were then milled followed by the determination of SSA and PSD.
The specific surface area was measured using the three-point nitrogen adsorption technique based on the Brunauer, Emmett and Teller (BET) theory using TriStar 3000 automated gas adsorption analyzer (Micromeritics, Inc.). The samples were vacuum dried for 20 hours in 40° C. The volumetric method was applied at the relative pressure range 0.1-0.3 P/P0.

[2] = Particle size distribution by laser light diffraction (Beckman Coulter LS13320, dry powder); details: for Volume particle size, Dv10 / Volume particle size, Dv50 / Volume particle size, Dv90: before/after milling
Method: The particle size distribution of crystalline particles of compound (I) can be analyzed by laser light diffraction, for example using Beckman Coulter LS13320 laser diffraction particle size analyzer equipped with Tornado Dry Powder System using air as dispersion medium with measurement pressure 24″H2O±2″H2O, sample amount 10 ml, system controlled target 5% for obscuration and applying Fraunhofer optical model.
The parameters considered are the volumetric diameters in μm of the 10th, 50th and 90th percentiles of the particles, expressed as Dv10, Dv50 and Dv90 respectively, which are determined by assuming that the particles have a geometric shape equivalent to a sphere.
The particle size distribution of the crystalline rounded particles of compound (I) prepared according to the present invention was determined by laser light diffraction. The determination was carried out by using Beckman Coulter LS13320 laser diffraction particle size analyzer equipped with Tornado Dry Powder System using air as dispersion medium with measurement pressure 24″H2O±2″H2O, sample amount 10 ml, system controlled target 5% for obscuration and applying Fraunhofer optical model. According to the analysis, Dv10 value of the particles is 359 μm, Dv50 is 632 μm and Dv90 is 925 μm.
as §1

[3] = Solubility in water (statement)
[4] = Example 4, crystalline rounded particles, FIG. 1

Row | Structure (SMILES) | SSA [1] | Volume particle size, Dv10 ([2]; Table 1, batch A) | Volume particle size, Dv50 ([2]; Table 1, batch A) | Volume particle size, Dv90 ([2]; Table 1, batch A) | Specific surface area [1] | Volume particle size, Dv10 ([2]; Table 2, batch B) | Volume particle size, Dv50 ([2]; Table 2, batch B) | Volume particle size, Dv90 ([2]; Table 2, batch B) | also measured
1 | CC(O)c1cc(C(=O)N[C@@H](C)Cn2ccc(-c3ccc(C#N)c(Cl)c3)n2)n[nH]1 (stereo partly drawn) [A (milled)] | 14 m^2/g | 2 μm | 36 μm | 218 μm |  |  |  |  | 
2 | CC(O)c1cc(C(=O)N[C@@H](C)Cn2ccc(-c3ccc(C#N)c(Cl)c3)n2)n[nH]1 (stereo partly drawn) [A (unmilled)] | 13 m^2/g | 171 μm | 407 μm | 625 μm |  |  |  |  | 
3 | CC(O)c1cc(C(=O)N[C@@H](C)Cn2ccc(-c3ccc(C#N)c(Cl)c3)n2)n[nH]1 (stereo partly drawn) [B (milled)] |  |  |  |  | 13 m^2/g | 3 μm | 96 μm | 292 μm | 
4 | CC(O)c1cc(C(=O)N[C@@H](C)Cn2ccc(-c3ccc(C#N)c(Cl)c3)n2)n[nH]1 (stereo partly drawn) [B (unmilled)] |  |  |  |  | 12 m^2/g | 176 μm | 389 μm | 826 μm | 
5 | CC(O)c1cc(C(=O)N[C@@H](C)Cn2ccc(-c3ccc(C#N)c(Cl)c3)n2)n[nH]1 (stereo partly drawn) [compound (I), N—((S)-1-(3-(3-chloro-4-cyanophenyl)-1H-pyrazol-1-yl)-propan-2-yl)-5-(1-hydroxyethyl)-1H-pyrazole-3-carboxamide] |  |  |  |  |  |  |  |  | Change of specific surface area (SSA) on milling to reduced particle size ([1]; batches A and B, milled vs unmilled): did not significantly change; Dv10 [2, 4]: 359 μm; Dv50 [2, 4]: 632 μm; Dv90 [2, 4]: 925 μm; Solubility in water [3]: poorly soluble in water
